Test results taken from US12129255B2, “Pyrido [2,3-d]pyrimidine derivatives as inhibitors of human immunodeficiency virus replication” (VIIV HEALTHCARE UK (No. 5) LIMITED, priority 2019, dated 2024).
Where two headings read alike, the source gives them in different places.

Experiments:
[1] = Metabolism in liver microsomes (monkey); assay type: in vitro ADME
Protocol: Liver microsomes from human, rat dog and monkey were thawed and diluted to a final concentration of 1 mg/mL in 100 mM potassium phosphate buffer (pH 7.4). Test compounds and controls were prepared at 100× final concentration of 1 μM in 1:1 acetonitrile:water (v/v) and aliquoted into microsomal mixture. The mixture was preincubated at 37° C. in a shaking water bath for 10 minutes. The incubations were performed in duplicate. Three controls were included in the incubations; warfarin, phenacetin, and verapamil. After the preincubation, the reaction was initiated with NADPH at a final concentration of 1 mM. At 0, 5, 15, 30, 45 and 60 minutes, 25 μL of sample was removed and quenched with 300 μL of acetonitrile containing internal standard (Telmisartan). The samples were vortexed for 5 minutes at 1200 rpm and then centrifuged at 4000 rpm for 10 min. A 100 μL aliquot of supernatant was diluted three-fold with water and injected on an Exion LC 4500 Triple Quad LC-MS/MS system. Results were reported as a percentage of parent remaining and was calculated from peak area ratios of test compound remaining after at each time point and compared to time zero incubation.

[2] = IV pharmacokinetics in monkey; assay type: in vivo, Cynomolgus monkeys
Protocol: (§1) PK was investigated in male CD1 mice, Wistar Han Rats, Cynomolgus monkeys, and Beagle Dogs. Two groups of animals (N=3 per group) received test compound either as an intravenous (IV) dose (1 mg/kg) or by oral gavage (5 mg/kg solution and suspension). Drug was formulated in 90% PEG 400, 10% ethanol for IV administration and in 90% PEG400, 5% ethanol for PO administration. Blood samples were collected at 0.167, 0.25, 0.5, 0.75, 1, 2, 3, 5, 7, 24, 48, 72 and 96 h post dose for IV; 0.25, 0.5, 0.75, 1, 2, 3, 5, 7, 24, 48, 72 and 96 h post dose for oral. Blood samples were collected into K3EDTA tubes and centrifuged at 1500 to 2000×g to obtain plasma. Plasma samples were stored at −20° C. until analysis by LC-MS/MS. All in vivo samples were injected on an Exion LC 4500 Triple Quad™ LC-MS/MS system where the column was maintained at 60° C. and the flow rate was 0.6 mL/min. All LC-MS/MS analysis parameters are captured electronically in the raw data files. Rat IV, Dog IV, Monkey IV, and Monkey PO PK samples were analyzed by General Analysis Method A. Mouse IV, Mouse PO, and Dog PO PK samples were analyzed by General Analysis Method B. Rat PO samples were analyzed by General Analysis Method C.
(§2) The PK parameters were obtained by non-compartmental analysis of plasma concentration vs time data (Phoenix WinNonlin v8.1). The peak concentration (Cmax) and time for Cmax (Tmax) were recorded directly from experimental observations. The area under the curve from time zero to the last sampling time [AUC0-T] and the area under the curve from time zero to infinity [AUCINF] were calculated using the linear-log trapezoidal rule. The total plasma clearance (CLTp), steady-state volume of distribution (VSS), apparent elimination half-life (T-HALF), and mean residence time (MRT) were estimated after IV administration. Estimations of AUC and T-HALF were made using a minimum of three timepoints with quantifiable concentrations. The absolute oral bioavailability (F) was estimated as the ratio of dose-normalized AUC values following oral and IV doses.

[3] = Subcutaneous pharmacokinetics in rat; assay type: in vivo, Wistar Han Rats
Protocol: Drug was formulated in 1% Kolliphor P188/1% PEG3350/3.5% Mannitol/94.5% Water and then administered to Wistar Han Rats as a subcutaneous injection at a dose of 20 mg/kg. Blood samples were collected at 0.167, 0.25, 0.5, 0.75, 1, 2, 3, 5, 7, 24, 48, 72, 96 h, and then every 3 days for up to 122 days. Blood samples were collected into K3EDTA tubes and centrifuged at 1500 to 2000×g to obtain plasma. Plasma samples were stored at −20° C. until analysis by LC-MS/MS.

recombinant NL4-3 virus = test: Antiviral activity toward recombinant NL4-3 Renilla luciferase virus in MT-2 cells; assay type: cell-based, HIV
Protocol: MT-2 cells, 293T cells and the proviral DNA clone of NL4-3 virus were obtained from the NIH AIDS Research and Reference Reagent Program. MT-2 cells were propagated in RPMI 1640 media supplemented with 10% heat inactivated fetal bovine serum (FBS), […]. The 293T cells were propagated in DMEM media supplemented with 10% heat inactivated FBS, […]. A recombinant NL4-3 proviral clone, in which a section of the nef gene was replaced with the Renilla luciferase gene, was used to make the reference virus used in these studies. The recombinant virus was prepared through transfection of the recombinant NL4-3 proviral clone into 293T cells using Transit-293 Transfection Reagent from Mirus Bio LLC (Madison, WI). Supernatant was harvested after 2-3 days and the amount of virus present was titered in MT-2 cells using luciferase enzyme activity as a marker by measuring luciferase enzyme activity. Luciferase was quantitated using the EnduRen Live Cell Substrate from Promega (Madison, WI). Antiviral activities of compounds toward the recombinant virus were quantified by measuring luciferase activity in MT-2 cells infected for 4-5 days with the recombinant virus in the presence of serial dilutions of the compound. […]

[4] = IV pharmacokinetics in rat; assay type: in vivo, Wistar Han Rats; conditions: Wistar Han, plasma, IV 1 mg/kg
Protocol: as §1, §2

[5] = IV pharmacokinetics in mouse; assay type: in vivo, male CD1 mice; conditions: male, CD1, plasma, IV 1 mg/kg
Protocol: as §1, §2

[6] = cynomolgus monkey, plasma, Monkey, IV 1 mg/kg

SMILES: Cn1nc(NS(C)(=O)=O)c2c(Cl)ccc(-n3c([C@H](Cc4cc(F)cc(F)c4)NC(=O)Cn4nc(C(F)F)c5c4C(F)(F)[C@@H]4C[C@H]54)nc4nc(OCCC(F)(F)F)ccc4c3=O)c21 (atropisomer, axis not shown; (P)) [Example 1, N—((S)-1-((3P)-3-(4-chloro-1-methyl-3-(methylsulfonamido)-1H-indazol-7-yl)-4-oxo-7-(3,3,3-trifluoropropoxy)-3,4-dihydropyrido[2,3-d]pyrimidin-2-yl)-2-(3,5-difluorophenyl)ethyl)-2-((3bS,4aR)-3-(difluoromethyl)-5,5-difluoro-3b,4,4a,5-tetrahydro-1H-cyclopropa[3,4]cyclopenta[1,2-c]pyrazol-1-yl)acetamide]
- stability in monkey liver microsomes relative to Example 60.2 ([1]; Example 1 versus Example 60.2): at least two times more stable
- half-life at 1 μM ([1]; monkey, liver microsomes, pH 7.4, 1 μM compound, 1 mg/mL microsomes, NADPH, read-out: Monkey liver microsome T1/2): > 2 h
- clearance [2, 6]: 8.5 mL/min/kg
- half-life [2, 6]: 3 h
- Vd ([2]; cynomolgus monkey, plasma, Monkey, IV 1 mg/kg, read-out: Vss): 1.18 L/kg
- clearance improved relative to Example 60.2 ([2]; monkey, IV): 2.6 fold
- half-life in circulation higher than Example 60.2 ([2]; monkey, IV): two-fold
- % of the AUC extrapolated ([3]; SC 20 mg/kg): 2.89%
- time drug concentrations were maintained above 7 ng/mL for all animals ([3]; SC 20 mg/kg (FIG. 1)): 73 days
- bioavailability ([3]; Wistar Han, plasma, SC 20 mg/kg): 93%
- half-life ([3]; Wistar Han, plasma, SC 20 mg/kg, read-out: apparent half-life of compound in plasma (converted)): 312 h
- EC50 (recombinant NL4-3 virus; Human immunodeficiency virus 1, NL43, MT2, read-out: EC50 (anti-HIV virology assay, revised average)): 0.025 ± 0.008 nM
- EC50 (recombinant NL4-3 virus; Human immunodeficiency virus 1, NL43, MT2, read-out: EC50 when initially tested): 0.034 nM
- clearance [4]: 2.64 mL/min/kg
- half-life [4]: 17.4 h
- Vd ([4]; read-out: Vss): 3.34 L/kg
- clearance [5]: 0.5 mL/min/kg
- half-life [5]: 7.6 h
- Vd ([5]; read-out: Vss): 0.24 L/kg
